pIC50: −log10 of the molar value. Like-named read-outs stand apart in the source and are kept apart here.
Experiments:
BRG-1 = biological target: T1, BRG-1 (Homo sapiens, UniProt P51532); test: ATPase catalytic activity of BRG-1, ADP-Glo in vitro biochemical assay; conditions: 30 nM BRG-1, 400 μM ATP; for pIC50: read-out: BRG1 IP50; for IC50: read-out: BRG1 IP50 (μM)*
T1 construct: made in house; host or cells: High Five insect cells

BRM = biological target: T2, BRM (Homo sapiens, UniProt P51531); test: ATPase catalytic activity of BRM, ADP-Glo in vitro biochemical assay; conditions: 30 nM BRM, 400 μM ATP; for pIC50: read-out: BRM IP50; for IC50: read-out: BRM IP50 (μM)*
T2 construct: made in house; host or cells: High Five insect cells
T2 sequence (P51531 whole entry): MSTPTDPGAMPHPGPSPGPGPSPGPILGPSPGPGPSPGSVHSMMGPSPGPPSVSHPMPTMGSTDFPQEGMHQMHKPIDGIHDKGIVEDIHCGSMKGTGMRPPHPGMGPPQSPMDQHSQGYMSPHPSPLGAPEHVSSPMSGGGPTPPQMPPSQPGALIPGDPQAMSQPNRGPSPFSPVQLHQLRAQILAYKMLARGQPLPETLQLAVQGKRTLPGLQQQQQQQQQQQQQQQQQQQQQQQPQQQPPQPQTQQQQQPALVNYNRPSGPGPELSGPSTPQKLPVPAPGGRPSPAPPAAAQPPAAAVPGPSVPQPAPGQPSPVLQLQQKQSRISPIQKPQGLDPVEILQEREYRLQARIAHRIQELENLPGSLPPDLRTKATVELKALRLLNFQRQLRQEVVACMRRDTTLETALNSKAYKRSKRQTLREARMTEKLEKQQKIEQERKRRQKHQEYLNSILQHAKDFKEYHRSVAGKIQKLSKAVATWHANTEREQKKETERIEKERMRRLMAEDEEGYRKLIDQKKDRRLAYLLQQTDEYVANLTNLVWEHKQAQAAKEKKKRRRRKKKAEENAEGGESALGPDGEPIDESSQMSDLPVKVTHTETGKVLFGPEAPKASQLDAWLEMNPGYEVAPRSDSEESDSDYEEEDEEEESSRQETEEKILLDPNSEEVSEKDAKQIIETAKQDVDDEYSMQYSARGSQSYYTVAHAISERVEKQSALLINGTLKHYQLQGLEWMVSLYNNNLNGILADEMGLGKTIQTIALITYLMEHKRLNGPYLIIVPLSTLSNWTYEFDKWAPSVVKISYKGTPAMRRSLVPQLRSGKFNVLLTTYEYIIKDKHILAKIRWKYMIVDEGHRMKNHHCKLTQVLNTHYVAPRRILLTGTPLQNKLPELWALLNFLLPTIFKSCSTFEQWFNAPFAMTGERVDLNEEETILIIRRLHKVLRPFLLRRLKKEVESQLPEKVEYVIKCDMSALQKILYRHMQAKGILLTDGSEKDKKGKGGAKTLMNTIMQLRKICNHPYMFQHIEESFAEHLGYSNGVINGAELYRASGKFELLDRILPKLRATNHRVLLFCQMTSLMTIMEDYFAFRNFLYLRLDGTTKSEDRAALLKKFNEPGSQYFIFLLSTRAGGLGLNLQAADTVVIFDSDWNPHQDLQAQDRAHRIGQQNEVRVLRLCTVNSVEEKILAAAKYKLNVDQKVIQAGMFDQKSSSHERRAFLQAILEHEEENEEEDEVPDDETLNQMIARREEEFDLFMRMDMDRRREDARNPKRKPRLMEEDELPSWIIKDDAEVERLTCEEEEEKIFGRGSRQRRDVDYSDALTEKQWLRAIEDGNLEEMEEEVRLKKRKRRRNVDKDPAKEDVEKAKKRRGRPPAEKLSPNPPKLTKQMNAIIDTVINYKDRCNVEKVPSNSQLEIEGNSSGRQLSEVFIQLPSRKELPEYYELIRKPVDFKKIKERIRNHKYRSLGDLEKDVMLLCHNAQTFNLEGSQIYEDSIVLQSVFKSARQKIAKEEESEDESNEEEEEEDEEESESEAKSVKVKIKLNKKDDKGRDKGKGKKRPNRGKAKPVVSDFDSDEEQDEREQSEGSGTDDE

T1 sequence (P51532 whole entry): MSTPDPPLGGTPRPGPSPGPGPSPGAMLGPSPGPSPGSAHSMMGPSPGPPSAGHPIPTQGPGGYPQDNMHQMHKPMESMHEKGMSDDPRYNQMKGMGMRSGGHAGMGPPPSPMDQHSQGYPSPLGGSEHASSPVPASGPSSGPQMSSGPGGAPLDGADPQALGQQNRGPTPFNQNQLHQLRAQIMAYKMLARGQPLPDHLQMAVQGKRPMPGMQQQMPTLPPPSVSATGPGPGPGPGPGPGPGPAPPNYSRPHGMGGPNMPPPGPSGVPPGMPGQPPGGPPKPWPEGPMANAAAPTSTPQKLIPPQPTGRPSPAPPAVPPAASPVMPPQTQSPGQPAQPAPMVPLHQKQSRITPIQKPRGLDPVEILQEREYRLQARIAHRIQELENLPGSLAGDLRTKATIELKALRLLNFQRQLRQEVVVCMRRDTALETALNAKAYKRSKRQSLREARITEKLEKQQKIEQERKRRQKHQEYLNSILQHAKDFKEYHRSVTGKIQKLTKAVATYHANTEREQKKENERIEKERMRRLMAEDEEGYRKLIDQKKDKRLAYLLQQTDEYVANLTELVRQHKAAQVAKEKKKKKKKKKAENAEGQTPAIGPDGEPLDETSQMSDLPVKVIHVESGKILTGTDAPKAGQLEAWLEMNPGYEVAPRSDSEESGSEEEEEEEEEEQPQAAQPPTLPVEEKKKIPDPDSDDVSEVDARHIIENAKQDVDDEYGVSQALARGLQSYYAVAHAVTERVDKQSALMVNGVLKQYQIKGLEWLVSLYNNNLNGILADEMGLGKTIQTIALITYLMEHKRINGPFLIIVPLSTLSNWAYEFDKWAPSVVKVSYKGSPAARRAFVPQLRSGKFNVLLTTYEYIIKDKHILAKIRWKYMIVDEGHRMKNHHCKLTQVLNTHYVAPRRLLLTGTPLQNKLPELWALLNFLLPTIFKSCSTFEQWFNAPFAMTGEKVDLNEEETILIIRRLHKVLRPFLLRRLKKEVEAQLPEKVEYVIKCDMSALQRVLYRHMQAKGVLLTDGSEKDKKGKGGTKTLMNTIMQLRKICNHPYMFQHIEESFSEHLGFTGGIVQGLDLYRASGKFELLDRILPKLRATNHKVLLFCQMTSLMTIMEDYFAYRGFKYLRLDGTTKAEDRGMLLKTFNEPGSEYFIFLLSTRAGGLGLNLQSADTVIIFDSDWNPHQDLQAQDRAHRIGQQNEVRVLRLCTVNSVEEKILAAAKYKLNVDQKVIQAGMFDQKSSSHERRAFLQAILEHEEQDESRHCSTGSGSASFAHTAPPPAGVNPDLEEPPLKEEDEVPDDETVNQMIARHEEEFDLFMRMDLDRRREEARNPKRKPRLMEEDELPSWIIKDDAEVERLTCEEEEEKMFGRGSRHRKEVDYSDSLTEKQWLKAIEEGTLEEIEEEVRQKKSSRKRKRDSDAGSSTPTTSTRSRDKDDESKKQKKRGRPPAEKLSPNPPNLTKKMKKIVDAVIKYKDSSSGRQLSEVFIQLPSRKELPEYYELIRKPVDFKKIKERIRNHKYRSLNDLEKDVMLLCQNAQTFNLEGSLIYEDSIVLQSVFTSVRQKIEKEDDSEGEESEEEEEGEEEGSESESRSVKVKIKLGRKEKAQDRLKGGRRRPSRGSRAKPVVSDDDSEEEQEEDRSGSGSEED

SMILES	pIC50 (BRG-1; ATPase catalytic activity)	pIC50 (BRM; ATPase catalytic activity)	IC50 (BRG-1; ATPase catalytic activity) [µM]	IC50 (BRM; ATPase catalytic activity) [µM]	also measured
CS(=O)(=O)n1ccc(C(=O)NCC(=O)Nc2nc(-c3cccc(N4CCC(F)CC4)c3)cs2)c1 [Compound 449]	< 8.00	< 8.00			
CS(=O)(=O)n1ccc(C(=O)NCC(=O)Nc2nc(-c3cccc(N4CCO[C@@H](CO)C4)c3)cs2)c1 [Compound 452]	< 8.00	< 8.00			
CS(=O)(=O)n1ccc(C(=O)NCC(=O)Nc2nc(-c3cccc(COc4ccncc4)c3)cs2)c1 [Compound 108, 1-(methylsulfonyl)-N-(2-oxo-2-((4-(3-((pyridin-4-yloxy)methyl)phenyl)thiazol-2-yl)amino)ethyl)-1H-pyrrole-3-carboxamide]			> 0.01	< 0.01	
CN1Cc2ccc(-c3csc(NC(=O)CNC(=O)c4ccn(C(C)(C)C)c4)n3)cc2CC1=O [Compound 124, 1-(tert-butyl)-N-(2-((4-(2-methyl-3-oxo-1,2,3,4-tetrahydroisoquinolin-6-yl)thiazol-2-yl)amino)-2-oxoethyl)-1H-pyrrole-3-carboxamide]			> 0.1	> 0.01	
CN(C)c1cccc(-c2csc(NC(=O)CNC(=O)c3ccn(C(C)(C)C)c3)n2)c1 [Compound 288]			> 0.01	> 0.01	
C[C@@H]1CN(c2cc(-c3csc(NC(=O)CNC(=O)c4ccn(S(C)(=O)=O)c4)n3)cc(C3CC3)c2)C[C@H](C)O1 [Compound 267]			> 0.1	> 0.1	
C[C@@H]1C[C@H](COc2cccc(-c3csc(NC(=O)CNC(=O)c4ccn(S(C)(=O)=O)c4)n3)c2)C[C@H](C)O1 [Compound 292]			> 0.1	> 0.1	
CS(=O)(=O)n1ccc(C(=O)NCC(=O)Nc2nc(-c3cccc(N4CC[C@H](O)C4)c3)cs2)c1 [Compound 177]			> 0.01	> 0.01	
CS(=O)(=O)n1ccc(C(=O)NCC(=O)Nc2nc(-c3ccnc(OC4CC4)c3)cs2)c1 [Compound 489]	< 8.00	< 8.00			
CC(C)(C)n1ccc(C(=O)NCC(=O)Nc2nc(-c3cccc(C4CC(F)(F)C4)n3)cs2)c1 [Compound 481]	< 7.00	< 7.00			
CS(=O)(=O)n1ccc(C(=O)NCC(=O)Nc2nc(-c3cccc(C(F)F)c3)cs2)c1 [Compound 248]			> 0.01	> 0.01	
C[C@@H]1COCCN1c1cccc(-c2csc(NC(=O)CNC(=O)c3ccn(S(C)(=O)=O)c3)n2)c1 [Compound 239]			> 0.01	> 0.01	
CC(C)(C)n1cc(C(=O)NCC(=O)Nc2nc(-c3cccc(C#N)c3)cs2)cn1 [Compound 37, 1-(tert-butyl)-N-(2-((4-(3-cyanophenyl)thiazol-2-yl)amino)-2-oxoethyl)-1H-pyrazole-4-carboxamide]			> 1	> 1	
CS(=O)(=O)n1ccc(C(=O)NCC(=O)Nc2nc(-c3cc(F)c4c(c3)OCC4)cs2)c1 [Compound 255]			< 0.01	< 0.01	
CC(C)(O)Cn1ccc(-c2cccc(-c3csc(NC(=O)CNC(=O)c4ccn(C(C)(C)C)c4)n3)c2)n1 [Compound 8, 1-(tert-butyl)-N-(2-((4-(3-(1-(2-hydroxy-2-methylpropyl)-1H-pyrazol-3-yl)phenyl)thiazol-2-yl)amino)-2-oxoethyl)-1H-pyrrole-3-carboxamide]			> 0.01	> 0.01	
CC(C)(C)n1ccc(C(=O)NCC(=O)Nc2nc(-c3cccc(C#N)c3)cs2)c1 [Compound 35, 1-(tert-butyl)-N-(2-((4-(3-cyanophenyl)thiazol-2-yl)amino)-2-oxoethyl)-1H-pyrrole-3-carboxamide]			> 0.1	> 0.1	
CS(=O)(=O)n1ccc(C(=O)NCC(=O)Nc2nc(-c3cccc(OC(F)(F)F)c3F)cs2)c1 [Compound 501]	< 7.00	< 8.00			
CC(=O)n1ccc(C(=O)NCC(=O)Nc2nc(-c3cccc(-c4ccncc4)c3)cs2)c1 [Compound 50, 1-acetyl-N-(2-oxo-2-((4-(3-(pyridin-4-yl)phenyl)thiazol-2-yl)amino)ethyl)-1H-pyrrole-3-carboxamide]			> 0.1	> 0.1	
CS(=O)(=O)n1ccc(C(=O)NCC(=O)Nc2nc(-c3cccc(-c4ccnc(N5CCC5)n4)c3)cs2)c1 [Compound 408, N-[2-[[4-[3-[2-(azetidin-1-yl)pyrimidin-4-yl]phenyl]thiazol-2-yl]amino]-2-oxo-ethyl]-1-methylsulfonyl-pyrrole-3-carboxamide]	> 8.00	> 8.00			
CS(=O)(=O)n1ccc(C(=O)NCC(=O)Nc2nc(-c3cccc(N4CCC4)c3F)cs2)c1 [Compound 499]	> 8.00	> 8.00			
CC1(n2ccc(C(=O)NCC(=O)Nc3nc(-c4cccc(N5CCC(O)CC5)n4)cs3)c2)COC1 [Compound 337]			> 0.01	> 0.01	
COC1CN(c2cccc(-c3csc(NC(=O)CNC(=O)c4ccn(S(C)(=O)=O)c4)n3)c2)C1 [Compound 246]			> 0.01	< 0.01	
COC[C@H](NC(=O)c1ccn(S(C)(=O)=O)c1)C(=O)Nc1nc(-c2cccc(C3COC3)c2)cs1 [Compound 466]	< 8.00	< 8.00			
Cn1ccc(-c2cccc(-c3csc(NC(=O)CNC(=O)c4ccn(C5(C)COC5)c4)n3)n2)n1 [Compound 327, 1-(3-methyloxetan-3-yl)-N-[2-[[4-[6-(1-methylpyrazol-3-yl)-2-pyridyl]thiazol-2-yl]amino]-2-oxo-ethyl]pyrrole-3-carboxamide]			> 0.01	> 0.01	
CS(=O)(=O)n1ccc(C(=O)NCC(=O)Nc2nc(-c3cccc(OCC4CCC4)c3)cs2)c1 [Compound 307]			> 0.01	> 0.01	
C[C@@H]1CN(c2cccc(-c3csc(NC(=O)[C@H](C)NC(=O)c4cn(C5(C)COC5)cn4)n3)n2)C[C@H](C)O1 [Compound 797]					pIC50 (BRG-1): < 7.00; pIC50 (BRM): < 7.00
CSCC[C@H](NC(=O)c1ccn(S(C)(=O)=O)c1)C(=O)Nc1nc(-c2cccc(-c3ccnc(C)c3)c2)cs1 [Compound 59, (S)—N-(1-((4-(3-(2-methylpyridin-4-yl)phenyl)thiazol-2-yl)amino)-4-(methylthio)-1-oxobutan-2-yl)-1-(methylsulfonyl)-1H-pyrrole-3-carboxamide]			< 0.01	< 0.01	
CNc1cccc(-c2csc(NC(=O)CNC(=O)c3ccn(S(C)(=O)=O)c3)n2)c1 [Compound 280]			> 0.01	> 0.01	
Cc1cc(-c2cccc(-c3csc(NC(=O)CNC(=O)c4ccn(C(C)(C)C)c4)n3)c2)cnn1 [Compound 402]	< 8.00	> 8.00			
Cn1ncc2c1CCN(c1cccc(-c3csc(NC(=O)CNC(=O)c4ccn(S(C)(=O)=O)c4)n3)c1)C2 [Compound 234]			> 0.01	> 0.01	

Further lines, with some results ahead:

pIC50 (BRG-1; ATPase catalytic activity)	pIC50 (BRM; ATPase catalytic activity)	IC50 (BRG-1; ATPase catalytic activity) [µM]	IC50 (BRM; ATPase catalytic activity) [µM]	SMILES	also measured
< 8.00	< 8.00			CN(C)[C@@H]1CCN(c2cccc(-c3csc(NC(=O)CNC(=O)c4ccn(S(C)(=O)=O)c4)n3)n2)CC1(F)F [Compound 762]	
< 7.00	< 7.00			CC(C)(C)n1ccc(C(=O)NCC(=O)Nc2nc(-c3cccc(OC(F)(F)F)n3)cs2)c1 [Compound 503]	
< 8.00	< 8.00			CS(=O)(=O)n1ccc(C(=O)NCC(=O)Nc2nc(-c3cc(F)cc(C#N)c3)cs2)c1 [Compound 715]	
< 8.00	< 8.00			CS(=O)(=O)n1ccc(C(=O)NCC(=O)Nc2nc(-c3ccc4c(c3)C(F)(F)CC4)cs2)c1 [Compound 720]	
< 8.00	< 8.00			CN1CCc2cc(-c3csc(NC(=O)CNC(=O)c4ccn(S(C)(=O)=O)c4)n3)ccc21 [Compound 658]	
< 8.00	< 8.00			Cc1nc(C2CCCN(c3cccc(-c4csc(NC(=O)CNC(=O)c5ccn(C(C)(C)C)c5)n4)n3)C2)no1 (centres unmarked) [Compound 704]	
> 8.00	> 8.00			COC[C@H](NC(=O)c1ccn(S(C)(=O)=O)c1)C(=O)Nc1nc(-c2cc(F)c3c(c2)CCO3)cs1 [Compound 708]	
< 8.00	< 8.00			COC[C@H](NC(=O)c1ccn(S(C)(=O)=O)c1)C(=O)Nc1nc(-c2cccc(N3CCC(C(F)F)CC3)c2)cs1 [Compound 557, (S)—N-(1-((4-(3-(4-(difluoromethyl)piperidin-1-yl)phenyl)thiazol-2-yl)amino)-3-methoxy-1-oxopropan-2-yl)-1-(methylsulfonyl)-1H-pyrrole-3-carboxamide]	
< 8.00	> 8.00			CC(C)(C)n1ccc(C(=O)NCC(=O)Nc2nc(-c3cccc(N4CCc5cnccc5C4)n3)cs2)c1 [Compound 681]	
< 7.00	< 7.00			COC(=O)N1CCC[C@@H](c2csc(NC(=O)CNC(=O)c3ccn(C(C)(C)C)c3)n2)C1 [Compound 580]	
< 7.00	< 7.00			N#CC1(n2ccc(C(=O)NCC(=O)Nc3nc(-c4cccc(OCC5(F)COC5)c4)cs3)c2)CC1 [Compound 528]	
< 7.00	< 7.00			CC(C)(C)n1ccc(C(=O)NCC(=O)Nc2nc(-c3cccc(N4CC[C@@H](N5CCOCC5)[C@@H](F)C4)n3)cs2)c1 [Compound 635]	
< 8.00	< 8.00			COC[C@H](NC(=O)c1ccn(C(C)(C)C)c1)C(=O)Nc1nc(-c2cnc3ccn(C)c(=O)c3c2)cs1 [Compound 611]	
> 8.00	> 8.00			C[C@@H]1CN(c2cccc(-c3csc(NC(=O)[C@H](C)NC(=O)c4ccn(C5(C#N)COC5)c4)n3)n2)C[C@H](C)O1 [Compound 600]	
< 7.00	< 7.00			C[C@@H]1CN(c2cccc(-c3csc(NC(=O)[C@@H](C)NC(=O)c4ccn(S(C)(=O)=O)c4)n3)n2)C[C@H](C)O1 [Compound 768]	
< 7.00	< 8.00			CC(C)(C)n1ccc(C(=O)NCC(=O)Nc2nc(-c3cccc(N4CCC(S(C)(=O)=O)C4)n3)cs2)c1 (centres unmarked) [Compound 667]	
